Reference: patent publication US4444690A, “Technetium chelates” (priority 1982, dated 1984)
Where “and” joins values, the source holds several entries; their conditions need not be identical. Identical values can stand only once. Like-named read-outs stand apart in the source and are kept apart here. Each block holds one compound with its values, some of them ahead of it.

What was measured:
[1] = rat, in vivo, iv, 1.5 h; cited from earlier work
renal tubular transport [2] = conditions: mouse, in vivo
Protocol: (§1) A dose of 50 mg/kg of probenicid was given 10 minutes prior to injection of radiochemicals. OIH was injected simultaneously.
(§2) *Values are mean and S.E.M. percent injected dose at 10 min. post

plasma proteins = conditions: cited from earlier work
[3] = cited from earlier work
[4] = rat, in vivo; cited from earlier work
[5] = mouse, in vivo, 5 min; cited from earlier work
[6] = human, in vivo; cited from earlier work
[7] = Organ biodistribution time course of Tc-CO2-DADS components in mice (Table 1); assay type: in vivo, Hal Cr female albino mice; conditions: mouse, in vivo
Protocol: Organ biodistribution and acute toxicity studies were carried out in mice, blood disappearance and bile appearance rates were determined by sampling of bood or bile in rats, and renal excretion rates of the two Tc-2,3-bis(mercaptoacetamido)propanoic acid components, Tc-DTPA, and OIH were determined in rabbits because of greater ease of urine sampling. The HPLC-purified Tc-2,3-bis(mercaptoacetamido)propanoate components were used directly except for dilution as necessary. In general HPLC collected volumes were 1 to 1.5 ml and were not diluted for rabbit studies, were diluted 2- to 10-fold for rat studies and were diluted about 20-fold for mouse studies. In most cases determinations were made with simultaneous administration of OIH.
The time course of organ distribution was determined in groups of six Hal Cr female albino mice. They were injected with 0.10 ml (0.5 uCi) of the preparation. For comparison purposes, 0.2 uCi OIH was added to each injection. The mice were placed in metabolic cages for the collection of excreted urine. At indicated intervals after injection, the urethra was ligated and the mice killed with chloroform vapor. The organs were removed and counted in a dual channel counter with correction for I-131 crossover into the Tc-99m channel.

renal tubular transport [8] = assay: Tubular transport inhibition study with probenicid (Table 2); conditions: mice; for Blood / Intestines / Kidneys / Liver / Urine (renal excretion): 10 min post injection; for Urine (renal excretion): 10 min
Protocol: as §1, §2

[9] = Blood disappearance rates in rats (FIG. 3); assay type: in vivo, male Sprague-Dawley rats; conditions: rat, in vivo
Source text: These determinations were made in male Sprague-Dawley rats.

[10] = Plasma protein binding, ultrafiltration; assay type: in vitro ADME; conditions: plasma, duplicate determinations, read-out: binding to plasma proteins (converted)
Protocol: Studies of protein binding were carried out in plasma using an ultrafiltration method described at J.Nucl.Med. 22, 258-263, 1981.

[11] = probenicid treated (50 mg/kg, 10 min prior)

- Blood (renal tubular transport [2]; 10 min): 1.85 percent injected dose
- Intestines (renal tubular transport [2]; 10 min): 4.69 percent injected dose
- Kidneys (renal tubular transport [2]; 10 min): 4.25 percent injected dose
- Liver (renal tubular transport [2]; 10 min): 2.24 percent injected dose
Compound: 1,2-Bis(mercaptoacetamido)ethane [Tc-DADS]
- biliary excretion of radioactivity in the absence of renal function [1]: 19%
- decrease in renal excretion with probenicid, in words (renal tubular transport [2]): decrease in renal excretion of Tc-DADS to a much greater extent than OIH
- protein binding value (plasma proteins): 95%
- renal retention ([3]; in vivo): no evidence of significant renal retention
- time at which radioactivity remaining in the blood was 2% [4]: 68 min
- time at which radioactivity remaining in the blood was 5% [4]: 19 min
- Kidneys [5]: 12.6 % of the dose
- in the urine [5]: 28%
- distribution of radioactivity [6]: confined radioactivity to the vascular system rather than the extracellular space as with Tc-DTPA
- effect of decreased renal function on renal excretion [6]: decreased renal function reduced renal excretion of Tc-DADS to a greater extent than OIH
- hepatobiliary excretion [6]: hepatobiliary excretion became significant

- OIH Urine ([7]; 5 min): 42.02 percent injected dose
- OIH Urine ([7]; 10 min): 64.94 percent injected dose
- OIH Urine ([7]; 0.25 h): 78.24 percent injected dose
- OIH Urine ([7]; 2 h): 82.43 percent injected dose
- Blood (renal tubular transport [8]; control): 4.58 percent injected dose
- Intestines (renal tubular transport [8]; control): 1.12 percent injected dose
- Kidneys (renal tubular transport [8]; control): 2.83 percent injected dose
- Liver (renal tubular transport [8]; control): 1.31 percent injected dose
- decrease of renal excretion by probenicid treatment (renal tubular transport [8]; 10 minutes): 20%
- Blood (renal tubular transport [8]; [11]): 7.49 percent injected dose
- Intestines (renal tubular transport [8]; [11]): 2.18 percent injected dose
- Kidneys (renal tubular transport [8]; [11]): 3.79 percent injected dose
- Liver (renal tubular transport [8]; [11]): 2.68 percent injected dose
- fraction unbound at 10 min ([10]; 10 minutes): 0.36
- fraction unbound at 0.5 h ([10]; 30 minutes): 0.44
Compound: O=C(O)CNC(=O)c1ccccc1[131I] [OIH, I-131 o-iodohippurate]
- extraction efficiency ([3]; renal): about 67%
- Urine (renal excretion) (renal tubular transport [8]; control): 64.94 percent injected dose and 65 percent injected dose
- Urine (renal excretion) (renal tubular transport [8]; [11]): 52.62 percent injected dose and 52 percent injected dose
- blood disappearance in words [9]: most rapid disappearance through 75 minutes
